Among the data in PubChem BioAssay (NCI) are TGI values, retold here.

Some test systems named below: A549 NSCLC; ACHN renal; BT-549 breast; CAKI-1 renal; DU-145 prostate; HCT-116 colon; HCT-15 colon; HT29 colon; M14 melanoma; MCF7 breast; NCI-H23 lung; OVCAR-4 ovarian; OVCAR-8 ovarian; PC-3 prostate; RPMI-8226 leukemia; SK-MEL-2 melanoma; SN12C renal; SW-620 colon; T-47D breast; MOLT-4 leukemia.
What all share (assay): NCI tumour cell line growth inhibition, 48 h

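Briefly, cells in 96-well plates were exposed to five compound concentrations for 48 h, and endpoints were estimated by linear interpolation. At the TGI there is no net growth.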

On to `COC1=C(OC)C(=O)C(Cc2c(C)nc3sccn23)=C(C)C1=O`, for which the TGI in the test with A549 NSCLC worked out at 40.3 µM; with ACHN renal, 30.1 µM; in the test on BT-549 breast it was 31 µM; with CAKI-1 renal it was 34.9 µM; in the test with DU-145 prostate, 38.6 µM; in the test with HCT-116 colon it was 64.2 µM. For the same compound, the TGI in the test with HCT-15 colon is 41 µM; with HT29 colon, 32.2 µM; in the test with M14 melanoma, 36.6 µM; in the test with MCF7 breast it was > 100 µM; in the test on NCI-H23 lung it was 29.5 µM; in the test with OVCAR-4 ovarian, 18.1 µM. The TGI was 33.6 µM in the test on OVCAR-8 ovarian; 51.6 µM in the test on PC-3 prostate; 24.7 µM in the test with RPMI-8226 leukemia; 41.5 µM in the test on SK-MEL-2 melanoma; 31 µM with SN12C renal; 34.8 µM in the test on SW-620 colon. The TGI in the test with T-47D breast is > 100 µM.
In the case of `CCOC(=O)c1cc2c3ccn(Cc4ccccc4)c3c3c(C)[nH]oc3c2n1`, the TGI with A549 NSCLC, in the test with ACHN renal, in the test on BT-549 breast, in the test on CAKI-1 renal, in the test on DU-145 prostate and in the test with HCT-116 colon was > 100 µM in each case. In addition, the TGI in the test with HCT-15 colon, in the test on M14 melanoma, in the test on MCF7 breast, with MOLT-4 leukemia, with NCI-H23 lung and in the test with OVCAR-4 ovarian was > 100 µM each time. Further, the TGI in the test on OVCAR-8 ovarian, in the test on PC-3 prostate, in the test on RPMI-8226 leukemia, in the test with SK-MEL-2 melanoma, in the test on SN12C renal and in the test on SW-620 colon was > 100 µM throughout. The TGI in the test on T-47D breast is > 100 µM.
As to `COC(=O)c1cc2c(cc1Cl)Sc1nnc(Nc3ccc(C)cc3)n1S2(=O)=O`, the TGI in the test on A549 NSCLC was 35.8 µM; in the test on ACHN renal, 8.8 µM; in the test with BT-549 breast, 30.5 µM; in the test with CAKI-1 renal it was 22 µM; with DU-145 prostate it was 7.31 µM; with HCT-116 colon, 24.5 µM. For the same compound, the TGI was determined as 12.5 µM in the test with HCT-15 colon; 15.5 µM with HT29 colon; 27.6 µM with M14 melanoma; 11.4 µM in the test on MCF7 breast; 7.07 µM in the test on MOLT-4 leukemia; 15.7 µM in the test with NCI-H23 lung. Also, the TGI in the test on OVCAR-4 ovarian is 10.7 µM; in the test with OVCAR-8 ovarian, 40.4 µM; in the test on PC-3 prostate it was 18 µM; in the test on RPMI-8226 leukemia, 5.44 µM; with SK-MEL-2 melanoma it was 9.16 µM; in the test on SN12C renal it was 36.5 µM. The compound also yielded a TGI in the test with T-47D breast of 4.12 µM.
With `C1=Cc2cc3c(c4nccc(c24)N1)OCO3`, the TGI with A549 NSCLC was > 41.7 µM; in the test with ACHN renal it was > 34.4 µM; in the test on BT-549 breast, 48.8 µM; in the test with CAKI-1 renal, > 32.1 µM; in the test with DU-145 prostate, 26.6 µM; in the test with HCT-116 colon, 17 µM. Also, the TGI with HCT-15 colon is > 76.7 µM; with M14 melanoma, 54.5 µM; in the test on MCF7 breast, 16.1 µM; in the test with MOLT-4 leukemia, > 46.8 µM; in the test on NCI-H23 lung, 26.3 µM; with OVCAR-4 ovarian it was > 46.6 µM. The TGI with OVCAR-8 ovarian was > 46.8 µM; with PC-3 prostate, > 100 µM; in the test on RPMI-8226 leukemia it was > 65.9 µM; in the test with SK-MEL-2 melanoma, 36.6 µM; with SN12C renal it was > 39.2 µM; with SW-620 colon it was > 57.8 µM. For the same compound, in the test on T-47D breast, the TGI is 34.8 µM.
`CC(=O)Oc1ccc2cc(-c3ccccc3OC(C)=O)c(=O)oc2c1`: the TGI with A549 NSCLC, in the test on ACHN renal, in the test on BT-549 breast, with DU-145 prostate, with HCT-116 colon and in the test with HCT-15 colon was > 100 µM each time. In addition, the TGI with HT29 colon, in the test with M14 melanoma, with MCF7 breast, in the test on MOLT-4 leukemia, in the test on NCI-H23 lung and with OVCAR-4 ovarian was > 100 µM in each case. In addition, the TGI in the test with OVCAR-8 ovarian, in the test with PC-3 prostate, in the test on RPMI-8226 leukemia, in the test with SK-MEL-2 melanoma, with SN12C renal and in the test on SW-620 colon was > 100 µM throughout. The compound further registered a TGI with T-47D breast of 56.7 µM.
As to `O=C1c2ccccc2C(=O)N1CCCCNOCCCN1C(=O)c2ccccc2C1=O`, the TGI in the test on A549 NSCLC, in the test with ACHN renal, with BT-549 breast, in the test with CAKI-1 renal, with DU-145 prostate and with HCT-116 colon was > 100 µM throughout. Further, the TGI with HCT-15 colon, in the test on HT29 colon, in the test with M14 melanoma, in the test on MCF7 breast, in the test on MOLT-4 leukemia and in the test on NCI-H23 lung was > 100 µM each time. In addition, the TGI with OVCAR-4 ovarian, in the test on OVCAR-8 ovarian, with PC-3 prostate, in the test on RPMI-8226 leukemia, in the test with SN12C renal and in the test with SW-620 colon was > 100 µM in each case. Besides, the TGI with T-47D breast is > 100 µM.
With `O=c1cc(N2CCCC2)[nH]c(=O)n1-c1cccc(Cl)c1`, the TGI in the test with ACHN renal, with BT-549 breast, in the test on CAKI-1 renal, in the test with DU-145 prostate, in the test on HCT-116 colon and in the test with HCT-15 colon was > 100 µM each time. The TGI in the test with HT29 colon, in the test on M14 melanoma, in the test on MCF7 breast, in the test on MOLT-4 leukemia, in the test on NCI-H23 lung and with OVCAR-4 ovarian was > 100 µM in each case. For the same compound, the TGI with OVCAR-8 ovarian, in the test with PC-3 prostate, in the test with RPMI-8226 leukemia, with SK-MEL-2 melanoma, in the test with SN12C renal and with SW-620 colon was > 100 µM throughout. The TGI with T-47D breast was > 100 µM.
